Measurements from patent US12544393B2, “Apoptosis-mimicking structures for inducing tissue regeneration” (THE REGENTS OF THE UNIVERSITY OF MICHIGAN, priority 2017, dated 2026).

Test system: bone marrow stromal cells (BMSCs)
Assay: Transwell migration assay of BMSCs
Format: cell-based, mouse
Procedure: The macrophage culture, co-cultures with apoptosis mimicking structures, and co-cultures with the control microspheres were also used in transwell assays to determine in vitro bone marrow stromal cell migration. Bone marrow stromal cells (BMSCs) were derived from bone marrow flush, and were cultured in α-MEM medium (20% FBS, Pen/Strep, glutamine) for one time (passage) after isolation.
Cell migration was assessed in 24-well plate transwells (Corning, Inc.) with a diameter of 6.5 mm and a pore size of 8 μm coated with 0.2 mg/mL collagen type I (EMD Millipore). BMSCs were placed in the upper chambers. Conditioned media from the macrophage culture, the co-cultures, or α-MEM medium (a negative control) containing CCL-2 protein and 0.2% FBS were added to the lower chambers. After 8 hours, cells were fixed with 2.5% glutaraldehyde for 15 minutes. Cells which remained on top of transwell membranes were removed with cotton swabs. Cells that had migrated through the pores to the lower surface were stained with Gill's Hematoxylin (Sigma-Aldrich). Four fields at 200× magnification were selected at random, photo micrographic images were obtained (shown in FIG. 15C), and the cells in each image were counted (results shown in FIG. 15D).
Different concentrations of recombinant CCL-2 were also examined for increasing BMSC migration.

CCL-2: recombinant C-C motif chemokine ligand 2 protein
increase of BMSCs migration compared with the control medium (concentration of 10 ng/ml): about 70% | further increase in BMSCs migration (concentration up to 100 ng/ml): did not cause further increase
